From US20250236901A1, “METHOD OF DETECTING A MICROORGANISM HAVING HIPPURICASE ACTIVITY” (BIOSYNTH AG, priority 2022, published 2025) come the findings set out here.

Assay type in all cases: cell-based
Experiment [1] concerns catalase-positive samples (Campylobacter). The experiment can be described thus: Catalase control experiment: chromogenic reaction of p-hydroxybenzoic acid with 4-AAP/HRP/H2O2 in presence of cells. The following applies: 1 mM 4-HBA, 0.5 mM 4-AAP, 4.5 U/mL HRP, 1 mM H2O2; OD600 0.4 to 0.5; FIG. 2B, FIG. 9. As for the experimental part:
In a catalase control experiment, biomass of colonies was suspended in sterile phosphate buffer (100 mM, pH 7.4) and the optical density OD was determined and then serially diluted with the same buffer to an OD600 of 0.4 to 0.5.
One hundred to 150 μL of cell suspension were mixed with 50 to 100 μL of 100 mM phosphate puffer pH 7.4 and 50 μL of the prepared mixture (5×) 4-aminoantipyrine (4-AAP, Merck 06800, 2.5 mM), peroxidase (HRP, Merck 77332, 22.5 U/mL) and 4-hydroxybenzoic acid (4-HBA, Merck H20059, 5 mM, dissolved in 100 mM phosphate puffer pH 7.4) and 5 μL of 50 mM H2O2 were added. The absorbance at 505 nm was recorded with a plate reader (SpektraMax M5, Molecular Devices) at room temperature. Final concentrations for the assay are 1 mM 4-HBA, 0.5 mM 4-AAP, 4.5 U/mL HRP and 1 mM H2O2. (FIG. 2B)
Two hundred μL of cell suspension were mixed with 20 μL of 100 mM phosphate puffer pH 7.4, 5 μL 50 mM and p-4-hydroxybenzoic acid (p-HBA, Merck H20059 dissolved in 100 mM phosphate puffer pH 7.4), 20 μL of mixture 4-aminoantipyridine (Merck 06800, 6.25 mM) and horseradish peroxidase (Merck 77332, 56.3 U/mL), followed by the addition of 5 μL of 50 mM H2O2. The absorbance at 505 nm was recorded with a plate reader (SpektraMax M5, Molecular Devices) at room temperature. Final concentrations for the assay are 1 mM p-4-HBA, 0.5 mM 4-AAP, 4.5 U/mL HRP and 1 mM H2O2. (FIG. 9)

Experiment [2] has as its system Campylobacter jejuni DSM 4688. The experiment can be described thus: Detection of hippuricase activity with 4-HHA, 4-aminoantipyrine and oxidizing reagent (color / absorbance at 505 nm). The following applies: for time to plateau of absorbance at 505 nm: HRP/H2O2. As for the experimental part: (§1) Campylobacter jejuni DSM 4688 (C. j., catalase positive), Eschericha coli (E. coli, catalase positive) and Campylobacter coli DSM 4689 (C. c., catalase positive), Streptococcus agalactiae ATCC®12386 (S. a., catalase negative) and Streptococcus pyogenes ATCC®19615 (S. p., catalase negative) were cultivated on Columbia Agar with sheep blood (Thermofischer PB5039A) at 37° C. for 48 h, both Campylobacter strains were cultivated under microaerophilic atmosphere (Oxoid, Campylgen CN0025A).
(§2) Biomass of colonies were suspended in sterile phosphate buffer (100 mM, pH 7.4) and the optical density OD was determined and set to OD600 of 0.9.
(§3) Two hundred μL of cell suspensions were mixed with 25 μL of 4-hydroxyhippuric acid (4-HHA, Bachem, 4005059) stock solution, prepared in 100 mM phosphate buffer pH adjusted to 7.4 in a microtiter plate (SpektraMax M5, Molecular Devices) and incubated for 70 minutes at 37° C. After incubation, 20 μL of a prepared mixture (12.5×) 4-aminoantipyrine (4-AAP, Merck 06800) and peroxidase (HRP, Merck 77332) and 5 μL of 100 mM H2O2 were added. The absorbance at 505 nm was recorded with a plate reader at room temperature. Final concentrations for the assay were 5 mM, 10 mM and 20 mM 4-HHA, 0.5 mM 4-AAP, 4.5 U/mL HRP and 2 mM H2O2.
(§4) Biomass of colonies were suspended in sterile 100 mM phosphate buffer pH 7.4 and the optical density OD600 was set to 0.9 and then serially diluted with the same buffer to an OD600 of 0.5, 0.2 and 0.1.
(§5) Two hundred μL of cell suspensions were mixed with 25 μL of 100 mM 4-hydroxyhippuric acid (4-HHA, Bachem 4005059) prepared in 100 mM phosphate buffer pH adjusted to 7.4) in a microtiter plate and incubated for 1 h at 37° C. After incubation, 20 μL of the prepared mixture (12.5×) 4-aminoantipyrine (4-AAP, Merck 06800) and peroxidase (HRP, Merck 77332), 5 μL of 100 mM H2O2 were added. The absorbance at 505 nm was recorded with a plate reader (SpektraMax M5, Molecular Devices) at room temperature. Final concentrations for the assay were 10 mM 4-HHA, 0.5 mM 4-AAP, 4.5 U/mL HRP and 2 mM H2O2.
(§6) Biomass of colonies were suspended in sterile phosphate buffer (100 mM, pH 7.4) and the optical density OD was set to 0.9 and then serially diluted with the same buffer to an OD600 of 0.5, 0.2 and 0.1.
(§7) Two hundred μL of cell suspension were mixed with 25 μL of 100 mM 4-hydroxyhippuric acid (4-HHA, Bachem 4005059, dissolved in 100 mM phosphate puffer pH 7.4) in microtiter plate and incubated for 1 h at 37° C. After incubation, 10 μL of the prepared mixture (25×) 4-aminoantipyrine (4-AAP, Merck 06800) and peroxidase (HRP, Merck 77332), 10 μL of 250 mM glucose (Merck, G8270) and 5 μL of glucose oxidase (GOD, Merck G2133) 50 U/mL were added. The absorbance at 505 nm was recorded with a plate reader. Final concentration of 4-HHA was 10 mM, 4-AAP was 0.5 mM, HRP was 4.5 U/mL, glucose was 10 mM and GOD was 1 U/mL.
Biomass of colonies were suspended, a) 0.2 mL sterile 100 mM phosphate buffer pH 7.4; b) 0.1 mL sterile water (as recommended in manual), c) 0.5 mL saline solution (as recommended in manual). To ensure a proper comparability, the optical density OD600 of all cell suspensions were set to 0.2. In method a) 25 μL of 100 mM 4-hydroxyhippuric acid (4-HHA, Bachem 4005059 prepared in 100 mM phosphate buffer pH adjusted to 7.4) was added to cell suspensions. In methods b) and c), Hippurate disks and Hippurate strips were dropped in cell suspensions as recommended in manual. To ensure a proper comparability, all samples were incubated at 37° C. for 1 h.
After incubation, 10 μL of the prepared mixture (25×) 4-aminoantipyrine (4-AAP, Merck 06800) and peroxidase (HRP, Merck 77332), followed with 5 μL of 100 mM H2O2 were added in samples of method a). Final concentrations for the assay were 10 mM 4-HHA, 0.5 mM 4-AAP, 4.5 U/mL HRP and 2 mM H2O2.

Experiment [3] concerns Campylobacter coli DSM 4689. The description is as above. As for the experimental part: as §1, §2, §3, §4, §5, §6, §7
Biomass of colonies were suspended, a) 0.2 mL sterile 100 mM phosphate buffer pH 7.4; b) 0.1 mL sterile water (as recommended in manual), c) 0.5 mL saline solution (as recommended in manual). To ensure a proper comparability, the optical density OD600 of all cell suspensions were set to 0.2. In method a) 25 μL of 100 mM 4-hydroxyhippuric acid (4-HHA, Bachem 4005059 prepared in 100 mM phosphate buffer pH adjusted to 7.4) was added to cell suspensions. In methods b) and c), Hippurate disks and Hippurate strips were dropped in cell suspensions as recommended in manual. […]

The next experiment concerns Eschericha coli. The experiment can be described thus: Detection of hippuricase activity with 4-HHA, 4-aminoantipyrine, HRP and H2O2. The following applies: Example 1; OD600 0.9; 5, 10, 20 mM 4-HHA, 70 min 37° C.; 0.5 mM 4-AAP, 4.5 U/mL HRP, 2 mM H2O2. As for the experimental part:
as §1, §2, §3

For experiment [4], the system named is Streptococcus agalactiae ATCC®12386. The experiment can be described thus: Detection of hippuricase activity with 4-HHA, 4-aminoantipyrine and oxidizing reagent. The following applies: Example 6; OD600 0.5-0.6; 10 mM 4-HHA; HRP/H2O2, HRP/Glu/GOD or NaIO4. As for the experimental part:
(§8) Streptococcus agalactiae ATCC®12386 and Streptococcus pyogenes ATCC®19615 were cultivated on Columbia Agar with sheep blood (Thermofischer PB5039A) at 37° C. for 48 h.
(§9) Biomass of colonies were suspended in sterile 100 mM phosphate buffer pH 7.4 and the optical density OD600 was set to 0.5-0.6.
as §5, with “incubated for 80 min. at 37°” for “incubated for 1 h at 37°”, “06800) and horseradish peroxidase (HRP,” for “06800) and peroxidase (HRP,”, “at room temperature and endpoint of absorbance at 505 nm was evaluated (FIG. 8A). Final concentrations” for “at room temperature. Final concentrations”
(§10) Two hundred μL of cell suspension were mixed with 25 μL of 100 mM 4-hydroxyhippuric acid (4-HHA, Bachem 4005059, dissolved in 100 mM phosphate puffer pH 7.4) in microtiter plate and incubated for 1 h at 37° C. […] The absorbance at 505 nm was recorded with a plate reader and endpoint of absorbance at 505 nm was evaluated (FIG. 8B). […]

Experiment [5] deals with Streptococcus pyogenes ATCC®19615. Described as above. The note with it: Example 6; OD600 0.5-0.6; 10 mM 4-HHA; HRP/H2O2, HRP/Glu/GOD or NaIO4. As for the experimental part:
as §8, §9
as §5, with “incubated for 80 min. at 37°” for “incubated for 1 h at 37°”, “06800) and horseradish peroxidase (HRP,” for “06800) and peroxidase (HRP,”, “at room temperature and endpoint of absorbance at 505 nm was evaluated (FIG. 8A). Final concentrations” for “at room temperature. Final concentrations”
as §10

[6] abbreviates: Example 1, OD600 0.9, 5, 10, 20 mM 4-HHA, 70 min 37° C., 0.5 mM 4-AAP, 4.5 U/mL HRP, 2 mM H2O2.

On to `O=C(O)c1ccc(O)cc1` [p-hydroxybenzoic acid], for which the “time after which the chromogenic reaction stopped (absorbance at 505 nm)” value in experiment [1] is “about 5 minutes”.

Regarding `O=C(O)CNC(=O)c1ccc(O)cc1` [4-HHA, p-hydroxyhippuric acid], the “time to plateau of absorbance at 505 nm” value is given as “about 5 minutes” in experiment [2] (Example 1, FIG. 2A, OD600 0.9) and “about 10 minutes” in experiment [2] (Example 2, FIG. 3, OD600 value of 0.1). Moreover, the color of sample entry in experiment [2] (setting [6]) is given as “robust red to pink color”; in experiment [2] (Example 2, OD600 0.1 to 0.9, 10 mM 4-HHA 1 h 37° C., HRP/2 mM H2O2), “robust red to pink color”; in experiment [2] (Example 3, OD600 0.1 to 0.9, 10 mM 4-HHA 1 h 37° C., HRP, 10 mM glucose, 1 U/mL GOD) it was “robust red to pink color”; in experiment [2] (Example 4 method a), OD600 0.2, 10 mM 4-HHA 1 h 37° C., HRP/2 mM H2O2, few minutes at room temperature), “significant pink color”; in experiment [2] (Example 5, OD600 0.1 to 1.1, 10 mM 4-HHA 1 h 37° C., 2 mM 4-AAP, 2 mM NaIO4) it was “red to pink color”; in experiment [3] (setting [6]), “colorless or slightly yellowish”. The color of sample entry in experiment [3] (Example 2, all OD600 values 0.1 to 0.9, 10 mM 4-HHA 1 h 37° C., HRP/2 mM H2O2) was “colorless or slightly yellowish”; in experiment [3] (Example 3, all OD600 values, 10 mM 4-HHA 1 h 37° C., HRP, 10 mM glucose, 1 U/mL GOD), “colorless or slightly yellowish”; in experiment [3] (Example 4 method a), OD600 0.2, 10 mM 4-HHA 1 h 37° C., HRP/2 mM H2O2) it was “slightly yellowish”; in experiment [3] (Example 5, all OD600 values, 10 mM 4-HHA 1 h 37° C., 2 mM 4-AAP, 2 mM NaIO4), “colorless or slightly yellowish”; in the experiment on Eschericha coli it was “colorless or slightly yellowish”; in experiment [4], “pink color”. Further, the color of sample result in experiment [5] is “colorless or slightly yellowish”.
